Values after ≈ are worked out from the molar mass of the structure shown.
Tested on: S. pneumoniae ATCC 49619
Assay: Minimal inhibitory concentration (MIC) by microdilution method (CLSI M7-A7)
Type: cell-based, Streptococcus pneumoniae
Conditions: Streptococcus pneumoniae, ATCC49619, cation-adjusted Mueller-Hinton Broth supplemented with 3% (v/v) lysed horse blood
Description: Minimal inhibitory concentrations (MICs; mg/l) were determined in cation-adjusted Mueller-Hinton Broth (supplemented with 3% (v/v) lysed horse blood for testing Streptococcus pneumoniae) by a microdilution method following the description given in “Methods for Dilution Antimicrobial Susceptibility Tests for Bacteria that Grow Aerobically”, Approved standard, 7th ed., Clinical and Laboratory Standards Institute (CLSI) Document M7-A7, Wayne, Pa., USA, 2006.

SMILES	MIC [µg/mL]
CCNC(=O)Nc1cc2cccc(Oc3cccnc3)c2cn1 [Example 147, 1-ethyl-3-[8-(pyridin-3-yloxy)-isoquinolin-3-yl]-urea]	4 (≈ 13 µM)
CCNC(=O)Nc1cc2c(-c3cccc4[nH]ccc34)ccc(C)c2cn1 [Example 69, 1-ethyl-3-[5-(1H-indol-4-yl)-8-methyl-isoquinolin-3-yl]-urea]	16 (≈ 46.5 µM)
CCNC(=O)Nc1cc2cc(-c3ccc(C(=O)N(C)C)cc3)cc(C)c2cn1 [Example 24, 4-[3-(3-ethyl-ureido)-8-methyl-isoquinolin-6-yl]-N,N-dimethyl-benzamide]	0.25 (≈ 0.664 µM)
CCNC(=O)Nc1cc2c(-c3cc(C)nc(C)c3)ccc(C)c2cn1 [Example 44, 1-[5-(2,6-dimethyl-pyridin-4-yl)-8-methyl-isoquinolin-3-yl]-3-ethyl-urea]	4 (≈ 12 µM)
CCNC(=O)Nc1cc2c(-c3ccc(CO)cc3)ccc(Oc3cccnc3)c2cn1 [Example 221, 1-ethyl-3-[5-(4-hydroxymethyl-phenyl)-8-(pyridin-3-yloxy)-isoquinolin-3-yl]-urea]	0.5 (≈ 1.21 µM)
C=Cc1cc(C)c2cnc(NC(=O)NCC)cc2c1 [Example 216, 1-ethyl-3-(8-methyl-6-vinyl-isoquinolin-3-yl)-urea]	8 (≈ 31.3 µM)
CCNC(=O)Nc1cc2cccc(COc3ccc(C)nc3)c2cn1.Cl [Example 256, 1-ethyl-3-[8-(6-methyl-pyridin-3-yloxymethyl)-isoquinolin-3-yl]-urea hydrochloride]	8
CCCNc1cc(Nc2cccnc2)c2cnc(NC(=O)NCC)cc2c1 [Example 238, 1-ethyl-3-[6-propylamino-8-(pyridin-3-ylamino)-isoquinolin-3-yl]-urea]	0.5 (≈ 1.37 µM)
CCNC(=O)Nc1cc2c(Br)ccc(C)c2cn1 [Example 1, 1-(5-bromo-8-methyl-isoquinolin-3-yl)-3-ethyl-urea]	1 (≈ 3.24 µM)
CCNC(=O)Nc1cc2cccc(Nc3cc(OC)ccn3)c2cn1.Cl [Example 160, 1-ethyl-3-[8-(4-methoxy-pyridin-2-ylamino)-isoquinolin-3-yl]-urea hydrochloride]	2
CCNC(=O)Nc1cc2c(-c3ccncc3)ccc(Nc3cccnc3)c2cn1 [Example 227, 1-ethyl-3-[5-pyridin-4-yl-8-(pyridin-3-ylamino)-isoquinolin-3-yl]-urea]	0.125 (≈ 0.325 µM)
CCNC(=O)Nc1cc2cccc(COc3ccncc3C(=O)OC)c2cn1.Cl [Example 212, 4-[3-(3-ethyl-ureido)-isoquinolin-8-ylmethoxy]-nicotinic acid methyl ester hydrochloride]	8
CCNC(=O)Nc1cc2c(-c3ccc(C(=O)O)cc3)cccc2cn1 [Example 124, 4-[3-(3-ethyl-ureido)-isoquinolin-5-yl]-benzoic acid]	4 (≈ 11.9 µM)
CCNC(=O)Nc1cc2cccc(Nc3ccc(C(=O)NC)cc3)c2cn1.Cl [Example 204, 4-[3-(3-ethyl-ureido)-isoquinolin-8-ylamino]-N-methyl-benzamide hydrochloride]	2
CCNC(=O)Nc1cc2c(F)c(-c3cccnc3)cc(-c3ccc(C(=O)O)cc3)c2cn1 [Example 33, 4-[3-(3-ethyl-ureido)-5-fluoro-6-pyridin-3-yl-isoquinolin-8-yl]-benzoic acid]	1 (≈ 2.32 µM)
CCNC(=O)Nc1cc2cc(-c3ccc(CO)nc3)cc(C)c2cn1 [Example 101, 1-ethyl-3-[6-(6-hydroxymethyl-pyridin-3-yl)-8-methyl-isoquinolin-3-yl]-urea]	1 (≈ 2.97 µM)
CCNC(=O)Nc1cc2cc(NCc3ccnc(N4CCOCC4)c3)cc(C)c2cn1 [Example 185, 1-ethyl-3-{8-methyl-6-[(2-morpholin-4-yl-pyridin-4-ylmethyl)-amino]-isoquinolin-3-yl}-urea]	4 (≈ 9.51 µM)
CCNC(=O)Nc1cc2cc(-c3ccc(OC)nc3)cc(C)c2cn1 [Example 89, 1-ethyl-3-[6-(6-methoxy-pyridin-3-yl)-8-methyl-isoquinolin-3-yl]-urea]	0.5 (≈ 1.49 µM)
CCNC(=O)Nc1cc2cc(NC(=O)c3cccc(N(C)C)c3)cc(Nc3cccnc3)c2cn1 [Example 241, 3-dimethylamino-N-[3-(3-ethyl-ureido)-8-(pyridin-3-ylamino)-isoquinolin-6-yl]-benzamide]	≤ 0.031
CCNC(=O)Nc1cc2cccc(Nc3ccc(O)cc3)c2cn1 [Example 175, 1-ethyl-3-[8-(4-hydroxy-phenylamino)-isoquinolin-3-yl]-urea]	16 (≈ 49.6 µM)

The remaining lines, values ahead:

MIC [µg/mL]	SMILES
1 (≈ 2.84 µM)	CCNC(=O)Nc1cc2c(F)ccc(NC(=O)c3ccccc3)c2cn1 [Example 51, N-[3-(3-ethyl-ureido)-5-fluoro-isoquinolin-8-yl]-benzamide]
8 (≈ 21.3 µM)	CCNC(=O)Nc1cc2cc(-c3ccccc3C(=O)N(C)C)cc(C)c2cn1 [Example 23, 2-[3-(3-ethyl-ureido)-8-methyl-isoquinolin-6-yl]-N,N-dimethyl-benzamide]
2 (≈ 4.65 µM)	CCNC(=O)Nc1cc2c(F)c(NCc3ccccc3)cc(Nc3cccnc3)c2cn1 [Example 240, 1-[6-benzylamino-5-fluoro-8-(pyridin-3-ylamino)-isoquinolin-3-yl]-3-ethyl-urea]
8 (≈ 25 µM)	CCNC(=O)Nc1cc2cc(-c3ccccc3C)cc(C)c2cn1 [Example 105, 1-ethyl-3-(8-methyl-6-o-tolyl-isoquinolin-3-yl)-urea]
8	CCNC(=O)Nc1cc2cc(NCc3cccc(OC)c3)cc(C)c2cn1.Cl [Example 197, 1-ethyl-3-[6-(3-methoxy-benzylamino)-8-methyl-isoquinolin-3-yl]-urea hydrochloride]
1 (≈ 2.36 µM)	CCNC(=O)Nc1cc2c(F)c(-c3ccc(S(N)(=O)=O)cc3)cc(Cl)c2cn1 [Example 111, 4-[8-chloro-3-(3-ethyl-ureido)-5-fluoro-isoquinolin-6-yl]-benzenesulfonamide]
2 (≈ 5.36 µM)	CCNC(=O)Nc1cc2c(F)c(NCc3ccccc3)cc(Cl)c2cn1 [Example 49, 1-(6-benzylamino-8-chloro-5-fluoro-isoquinolin-3-yl)-3-ethyl-urea]
0.125 (≈ 0.359 µM)	CCNC(=O)Nc1cc2cc(NC(=O)c3ccccc3)cc(C)c2cn1 [Example 106, N-[3-(3-ethyl-ureido)-8-methyl-isoquinolin-6-yl]-benzamide]
8	CCNC(=O)Nc1cc2cc(NCCOCc3ccccc3)cc(C)c2cn1.Cl [Example 132, 1-[6-(2-benzyloxy-ethylamino)-8-methyl-isoquinolin-3-yl]-3-ethyl-urea hydrochloride]
1 (≈ 3.11 µM)	CCNC(=O)Nc1cc2cccc(CNc3cccnc3)c2cn1 [Example 190, 1-ethyl-3-[8-(pyridin-3-ylaminomethyl)-isoquinolin-3-yl]-urea]
1 (≈ 2.74 µM)	CCNC(=O)Nc1cc2cccc(Nc3ccc(C)c(C(=O)O)c3)c2cn1 [Example 265, 5-[3-(3-ethyl-ureido)-isoquinolin-8-ylamino]-2-methyl-benzoic acid]
2	CCNC(=O)Nc1cc2cccc(Nc3cccc(C(=O)NCc4ccccc4)c3)c2cn1.Cl [Example 201, N-benzyl-3-[3-(3-ethyl-ureido)-isoquinolin-8-ylamino]-benzamide hydrochloride]
8	CCNC(=O)Nc1cc2cccc(Nc3ncccc3C)c2cn1.Cl [Example 167, 1-ethyl-3-[8-(3-methyl-pyridin-2-ylamino)-isoquinolin-3-yl]-urea hydrochloride]
2	CCNC(=O)Nc1cc2cccc(Nc3cncc(F)c3)c2cn1.Cl [Example 159, 1-ethyl-3-[8-(5-fluoro-pyridin-3-ylamino)-isoquinolin-3-yl]-urea hydrochloride]
2 (≈ 6.22 µM)	CCNC(=O)Nc1cc2c(-c3ccnc(N)c3)ccc(C)c2cn1 [Example 45, 1-[5-(2-amino-pyridin-4-yl)-8-methyl-isoquinolin-3-yl]-3-ethyl-urea]
2 (≈ 6.33 µM)	CCNC(=O)Nc1cc2c(-c3c[nH]cn3)ccc(Cl)c2cn1 [Example 288, 1-[8-chloro-5-(1H-imidazol-4-yl)-isoquinolin-3-yl]-3-ethyl-urea]
1 (≈ 3.08 µM)	CCNC(=O)Nc1cc2c(F)c(-c3ccccn3)cc(C)c2cn1 [Example 48, 1-ethyl-3-(5-fluoro-8-methyl-6-pyridin-2-yl-isoquinolin-3-yl)-urea]
0.5 (≈ 1.33 µM)	CCNC(=O)Nc1cc2cc(-c3ccc(CNC(C)=O)cc3)cc(C)c2cn1 [Example 81, N-{4-[3-(3-ethyl-ureido)-8-methyl-isoquinolin-6-yl]-benzyl}-acetamide]
8 (≈ 19.3 µM)	CCNC(=O)Nc1cc2cc(NCc3cccc(Cn4cncn4)c3)cc(C)c2cn1 [Example 188, 1-{6-[(3-((1H-1,2,4-triazol-1-yl)methyl)benzyl)amino]-8-methylisoquinolin-3-yl}-3-ethylurea]
8	CCNC(=O)Nc1cc2cccc(COc3cccc(N)c3)c2cn1.Cl [Example 260, 1-[8-(3-amino-phenoxymethyl)-isoquinolin-3-yl]-3-ethyl-urea hydrochloride]
8 (≈ 18.7 µM)	CCNC(=O)Nc1cc2cc(NCc3ccc(S(=O)(=O)NC)cc3)cc(C)c2cn1 [Example 189, 4-{[3-(3-ethyl-ureido)-8-methyl-isoquinolin-6-ylamino]-methyl}-N-methyl-benzenesulfonamide]
2 (≈ 5.2 µM)	CCNC(=O)Nc1cc2c(-c3cccc(S(N)(=O)=O)c3)ccc(C)c2cn1 [Example 13, 3-[3-(3-ethyl-ureido)-8-methyl-isoquinolin-5-yl]-benzenesulfonamide]
16 (≈ 47.8 µM)	CCNC(=O)Nc1cc2cccc(NC(=O)c3ccccc3)c2cn1 [Example 70, N-[3-(3-ethyl-ureido)-isoquinolin-8-yl]-benzamide]

Same assay, conditions: cation-adjusted Mueller-Hinton Broth supplemented with 3% (v/v) lysed horse blood

MIC for S. pneumoniae ATCC 49619 [µg/mL]	SMILES
4	CCNC(=O)Nc1cc2c(CNC)ccc(Nc3cccc(OC)n3)c2cn1 [Example 271, 1-ethyl-3-{8-[(6-methoxy-pyridin)-2-ylamino]-5-[(methylamino)methyl]-isoquinolin-3-yl}-urea]
